# Test results reported in patent US9884122B2, “Small molecule drug conjugates” (Philochem AG, priority 2014, dated 2018).
# How the values were obtained:
# [1] = target: T1, recombinant carbonic anhydrase IX (Homo sapiens, UniProt Q16790); assay: biochemical; assay type: binding
# T1 construct: Recombinant CAIX was expressed as described previously; made in house
# Procedure: The FP was measured on a Spectra Max Paradigm multimode plate reader (Molecular Devices). Experiments were performed in triplicate and data analyzed as described by Wang and co-workers.^[4]
# [2] = system: CAIX expressing SKRC52 cells; assay: In vitro cytotoxicity assay (MTS); assay type: cell-based, human
# Procedure: SKRC52 or A549 cells were seeded in 96-well plates in their appropriate culture medium (100 μL) at a density of 5000 cells per well and allowed to grow for 24 h. The medium was replaced with medium containing different concentrations of test substance (100 μL, 300 nM-15 pM in 1:3 dilution steps) and plates were either:
# (a) incubated for 72 hours in the presence of the toxic substance, or
# (b) incubated for 1 h under standard culture conditions, followed by removal of the medium containing the toxic substance, gently washing the cells fresh medium once and adding new medium (100 μL) and incubating for 72 h under culture conditions.
# MTS cell viability dye (20 μL, Promega) was added, the plates were incubated for 1 h under culture conditions and the absorbance at 490 nm measured on a Spectra Max Paradigm multimode plate reader (Molecular Devices). Experiments were performed in triplicate and average cell viability calculated as measured background corrected absorbance divided by the absorbance of untreated control wells. EC50 values were determined by fitting data to the four-parameter logistic equation.
# [3] = target: T1, recombinant carbonic anhydrase IX; assay: Determination of ligand KD by fluorescence polarization; assay type: binding; conditions: for Kd: 5 nM labeled ligand, 1 h room temperature, read-out: KD for fluorophore-linker-ligand complexes
# Procedure: Fluorescently labeled ligands (2 mg) were dissolved in DMSO (100 μL) and diluted 1:2000 into PBS pH 7.4 to determine the stock's concentration by absorbance measurement at 495 nm (ε495=72,000 M^−1 cm^−1). Recombinant CAIX was expressed as described previously^[3], dialyzed against assay buffer (50 mM tris(hydroxymethyl)aminomethane [TIRS] pH 7.4 containing 1 mM ZnSO4) at 4° C. overnight and the protein concentration determined by absorbance measurement at 280 nm (ε280=35,075 M^−1 cm^−1).
# In a black 384-well plate in assay buffer (30 μL) fluorescently labeled ligands (5 nM from appropriately diluted DMSO stocks, final DMSO content adjusted to 0.001%) were incubated with increasing concentrations of recombinant carbonic anhydrase IX (4.6 μM to 140 pM in steps of 1:2) for 1 h at room temperature. The fluorescence polarization (FP) was measured on a Spectra Max Paradigm multimode plate reader (Molecular Devices). Experiments were performed in triplicate, mean FP values divided by the top-plateau signal and the fractional FP value fit to equation (2) using KaleidaGraph 4.0 (Synergy Software). FP=([P]0+[L]0+KD)−√{square root over (([P]0+[L]0+KD)^2−4[P]0[L]0)} (2)
# Where FP is the fractional fluorescence polarization, [P]0 the total protein concentration, [L]0 the total concentration of the fluorescently labeled ligand and KD the dissociation constant in nM.
# SKRC52 xenograft tumors = system: SKRC52 xenograft tumors
# Procedure: SKRC52 xenograft tumors were implanted into balb/c nu/nu mice (Charles River) as described above. […] 5 doses of 4 nmol 7a,b, 8a,b or 7 doses of 70 nmol 9a,b each in PBS pH 7.4 (150 μL) containing 5% DMSO were given on 5 or 7 consecutive days and one group was treated with vehicle (5% DMSO in PBS pH 7.4). In the case of 7-9b an equimolar amount of AAZ was added to the injection solution to control for a possible antitumor activity of CAIX inhibitors. Sorafenib and sunitnib were administered at a standard dose of 30 mg/kg as described previously.^[5] Animals were weighed and tumor sizes measured daily and the tumor volume calculated according to the formula (long side)×(short side)^2×0.5. […] Prism 6 (GraphPad Software) was used for data analysis (regular two-way ANOVA with the Bonferroni test).
# [4] = system: CAIX-expressing SKRC52 xenografts; conditions: mouse, in vivo
# [5] = system: subcutaneous SKRC52 tumors; conditions: 3 nmol intravenous, 1-12 h
# Procedure: SKRC52 cells were grown to 80% confluence and detached with Trypsin-EDTA 0.05% (Invitrogen). Cells were washed with PBS pH 7.4 once, counted and resuspended in PBS to a final concentration of 6.7×10^7 cells mL^−1. Athymic balb/c nu/nu mice, 8-10 weeks of age (Charles River) were anesthetized with isofluorane and aliquots of 1×10^7 cells (150 μL of suspension) injected subcutaneously into their lower back.
# Food and water was given ad libitum during that period.
# Mice were subsequently sacrificed by cervical dislocation.
# [6] = Homo sapiens, SK-RC-52, Condition (a): incubated 72 hours in the presence of the toxic substance
# [7] = Homo sapiens, SK-RC-52, Condition (b): 1 h exposure, wash, then 72 h, concentrations up to 300 nM
# [8] = Condition (b): 1 h exposure, wash, then 72 h, concentrations up to 300 nM
smiles,measurement,setting,value
"COc1cc2cc(c1Cl)N(C)C(=O)C[C@H](OC(=O)[C@H](C)N(C)C(=O)CCSSC[C@H](NC(=O)[C@H](CC(=O)O)NC(=O)[C@H](CCCNC(=N)N)NC(=O)[C@H](CC(=O)O)NC(=O)CCCCn1cc(CCCC(=O)O)nn1)C(=O)O)[C@@]1(C)O[C@H]1[C@H](C)[C@@H]1C[C@@](O)(NC(=O)O1)[C@H](OC)/C=C/C=C(\C)C2 [Compound 9b, Untargeted DM1 Conjugate]",binding affinity for recombinant CAIX in vitro (in words),[1],do not exhibit strong binding
"COc1cc2cc(c1Cl)N(C)C(=O)C[C@@H](OC(=O)[C@@H](C)NC(=O)CCSC)[C@]1(C)O[C@@H]1[C@@H](C)[C@@H]1C[C@](O)(NC(=O)O1)[C@@H](OC)/C=C/C=C(\C)C2 [DM1SMe, DM1-SMe, reference compound]",EC50,[2]; [6],0.5 nM
same,EC50,[2]; [7],5.8 ± 1.1 nM
"CC(C)[C@@H](C(=O)NCCOCCOCCNC(=S)Nc1ccc(-c2c3ccc(=O)cc-3oc3cc(O)ccc23)c(C(=O)O)c1)n1cc(-c2ccc(S(N)(=O)=O)cc2)nn1 [Compound 2a, (S)—N-(2-(2-(2-aminoethoxy)ethoxy)ethyl)-3-methyl-2-(4-(4-sulfamoylphenyl)-1H-1,2,3-triazol-1-yl)butanamide fluorescein conjugate]",Kd,[3],18.1 ± 1.3 nM
"CC(C)(C)OC(=O)NCCOCCOCCNC(=S)Nc1ccc(-c2c3ccc(=O)cc-3oc3cc(O)ccc23)c(C(=O)O)c1 [Compound 6a, Tert-butyl (2-(2-(2-aminoethoxy)ethoxy)ethyl)carbamate fluorescein conjugate]",binding to CAIX (in words),[3],did not bind to the CAIX
"NS(=O)(=O)c1ccc(C(=O)NCCOCCOCCNC(=S)Nc2ccc(-c3c4ccc(=O)cc-4oc4cc(O)ccc34)c(C(=O)O)c2)cc1 [Compound 5a, N-(2-(2-(2-aminoethoxy)ethoxy)ethyl)-4-sulfamoylbenzamide fluorescein conjugate]",Kd,[3],218 ± 9 nM
"COc1cc2[nH]c(C(=O)N3C[C@@H](CCl)c4c3cc(O)c3ccccc43)cc2cc1OCCN(C)C [Compound 14, Seco CBI Drug]",EC50,[2]; [6],0.055 ± 0.005 nM
same,EC50,[2]; [7],1 ± 0.1 nM
"COc1cc2cc(c1Cl)N(C)C(=O)C[C@H](OC(=O)[C@H](C)N(C)C(=O)CCS)[C@]1(C)O[C@H]1[C@H](C)[C@@H]1C[C@@](O)(NC(=O)O1)[C@H](OC)/C=C/C=C(\C)C2 [DM1, reference compound]",EC50,[2]; [8],45 ± 10 nM
"COc1cc2[nH]cc(C(=O)N3C[C@@H](CCl)c4c3cc(OC(=O)OCCSSC[C@H](NC(=O)[C@H](CC(=O)O)NC(=O)[C@H](CCCNC(=N)N)NC(=O)[C@H](CC(=O)O)NC(=O)CCCCn3cc(CCCC(=O)O)nn3)C(=O)O)c3ccccc43)c2cc1OCCN(C)C [Compound 7b, Untargeted CBI Carbonate]",EC50,[2]; [8],1.4 ± 0.3 nM
same,binding affinity for recombinant CAIX in vitro (in words),[1],do not exhibit strong binding
same,Kd,"[1]; unlabeled drug-linker conjugate, read-out: KD (competitive fluorescence polarization)",> 1000 nM
"CNC(=O)c1cc(Oc2ccc(NC(=O)Nc3ccc(Cl)c(C(F)(F)F)c3)cc2)ccn1 [sorafenib, reference compound]",antitumor effect of standard drugs,SKRC52 xenograft tumors; standard dose of 30 mg/kg,"neither sorafenib nor sunitinib, which represent the most commonly used chemotherapeutic agents for the treatment of kidney cancer, exhibited any detectable antitumor effect"
"COc1cc2[nH]cc(C(=O)N3C[C@@H](CCl)c4c3cc(OC(=O)N(C)CCSSC[C@H](NC(=O)[C@H](CC(=O)O)NC(=O)[C@H](CCCNC(=N)N)NC(=O)[C@H](CC(=O)O)NC(=O)CCCCn3cc(CCCC(=O)O)nn3)C(=O)O)c3ccccc43)c2cc1OCCN(C)C [Compound 8b, Untargeted CBI Carbamate]",binding affinity for recombinant CAIX in vitro (in words),[1],do not exhibit strong binding
same,tumor growth effect,"SKRC52 xenograft tumors; 5 doses of 4 nmol on 5 consecutive days, 7a vs vehicle p<0.0001, vs 7b plus AAZ p<0.05",did not lead to any retardation in tumor growth
CC1(C)C(/C=C/C2=C(c3ccc(CCCCC(=O)NCCOCCOCCNC(=O)[C@H](CCCCNC(=O)[C@H](CC(=O)O)NC(=O)[C@H](CC(=O)O)NC(=O)CCCCn4cc(CCCC(=O)Nc5nnc(S(N)(=O)=O)s5)nn4)NC(=O)[C@H](CC(=O)O)NC(=O)[C@H](CC(=O)O)NC(=O)CCCCn4cc(CCCC(=O)Nc5nnc(S(N)(=O)=O)s5)nn4)cc3)C(=C/C=C3/N(CCCCS(=O)(=O)O)c4ccc(S(=O)(=O)O)cc4C3(C)C)/CCC2)=[N+](CCCCS(=O)(=O)[O-])c2ccc(S(=O)(=O)O)cc21 [Compound B4],accumulation in the tumour (imaging),[4],strongly accumulated in the tumour
same,"integrated fluorescence signal in the tumour, of its initial value",[4],40%
same,residence on the tumour,[4],significantly longer residence on the tumour
same,tumour:lung ratio,[4],higher tumour:lung ratio than B3
"NS(=O)(=O)c1ccc(Nc2nc(Cl)nc(NCCOCCOCCNC(=S)Nc3ccc(-c4c5ccc(=O)cc-5oc5cc(O)ccc45)c(C(=O)O)c3)n2)cc1 [Compound 3a, 4-((4-((2-(2-(2-aminoethoxy)ethoxy)ethyl)amino)-6-chloro-1,3,5-triazin-2-yl)amino)benzenesulfonamide fluorescein conjugate]",Kd,[3],46.8 ± 1.2 nM
"NS(=O)(=O)c1nnc(NC(=O)CCC(=O)NCCOCCOCCNC(=S)Nc2ccc(-c3c4ccc(=O)cc-4oc4cc(O)ccc34)c(C(=O)O)c2)s1 [Compound 1a, N1-(2-(2-(2-aminoethoxy)ethoxy)ethyl)-N4-(5-sulfamoyl-1,3,4-thiadiazol-2-yl)succinamide fluorescein conjugate]",Kd,[3],12.6 ± 1 nM
"CC(C)[C@@H](C(=O)NCCOCCOCCNC(=O)CCCCc1ccc(C2=C(/C=C/C3=[N+](CCCCS(=O)(=O)O)c4ccc(S(=O)(=O)O)cc4C3(C)C)CCC/C2=C\C=C2\N(CCCCS(=O)(=O)O)c3ccc(S(=O)(=O)[O-])cc3C2(C)C)cc1)n1cc(-c2ccc(S(N)(=O)=O)cc2)nn1 [Compound 2c, (S)—N-(2-(2-(2-aminoethoxy)ethoxy)ethyl)-3-methyl-2-(4-(4-sulfamoylphenyl)-1H-1,2,3-triazol-1-yl)butanamide IRDye750 conjugate]",tumor targeting by near infrared imaging,[5],the tumor was barely visible
